Measurements published in US11980596B2 (priority 2017, dated 2024).

System: subjects with MDD at imminent risk for suicide
[1] = esketamine 84 mg, double-blind phase, N = 35
[2] = esketamine 84 mg, follow up phase, N = 27

Procedure: The study consisted of a screening evaluation performed within 24 hours (or up to 48 hours upon consultation with the Sponsor's medical monitor) prior to Day 1 dose, immediately followed by a 25-day double-blind treatment phase (Day 1 to 25) with twice a week dosing, and a 56-day follow up phase (Day 26 to Day 81). The study was designed as a POC study and therefore a two-sided 0.20 significance level was used.
Among 68 randomized subjects, 66 were included in the safety analysis set (defined as receiving at least one dose of study medication in the double-blind phase). […] All safety subjects (N=66) were included in the intent-to-treat (ITT) analysis set (defined as receiving at least one dose of study medication during the double-blind phase and having both the baseline and the Day 1, 4-hour postdose evaluation for the MADRS total score). Forty-nine subjects were included in the safety (FU) analysis set (defined as all subjects who have at least 1 visit during the follow up phase).

CN[C@]1(c2ccccc2Cl)CCCCC1=O [esketamine, (S)-2-(2-chlorophenyl)-2-(methylamino)cyclohexanone]
3: AE Infections and infestations, no. subjects [2] | AE Insomnia, no. subjects [2]
(18.5%): AE Psychiatric disorders, % of subjects [2]
(48.1%): Total subjects with adverse events, % of subjects [2]
5 (14.3%) subjects (%): Total no. subjects with TEAE leading to study discontinuation [1]
13: Total no. subjects with adverse events [2]
0: AE Aphthous ulcer, no. subjects [2] | AE Bronchitis, no. subjects [2] | AE Cellulitis, no. subjects [2] | AE Depressed mood, no. subjects [2] | AE Drug hypersensitivity, no. subjects [2] | AE Ear and labyrinth disorders, no. subjects [2] | AE Folliculitis, no. subjects [2] | AE Immune system disorders, no. subjects [2] | AE Influenza, no. subjects [2] | AE Meniere's disease, no. subjects [2] | AE Metabolism and nutrition disorders, no. subjects [2] | AE Nausea, no. subjects [2] | AE Panic reaction, no. subjects [2] | AE Polydipsia, no. subjects [2] | AE Procedural pain, no. subjects [2] | AE Rash, no. subjects [2] | AE Renal and urinary disorders, no. subjects [2] | AE Renal failure, no. subjects [2] | AE Self-injurious ideation, no. subjects [2] | AE Sexual dysfunction, no. subjects [2] | AE Somnolence, no. subjects [2] | AE Suicide attempt, no. subjects [2] | AE Tooth impacted, no. subjects [2] | AE Toothache, no. subjects [2] | AE Viral upper respiratory tract infection, no. subjects [2]
0 subjects (%): TEAE leading to study discontinuation: Panic attack [1] | Serious adverse event: Cellulitis [2] | Serious adverse event: Infections and infestations [2] | Serious adverse event: Suicide attempt [2]
none: Suicide attempts (non-fatal) (follow up period)
(22.2%): AE Gastrointestinal disorders, % of subjects [2] | AE Nervous system disorders, % of subjects [2]
29 (82.9%) subjects (%): Possibly related TEAE (esketamine 84 mg, double-blind phase, N = 35, possible, probable, very likely)
(11.1%): AE Infections and infestations, % of subjects [2] | AE Insomnia, % of subjects [2]
1: AE Abdominal pain, no. subjects [2] | AE Abdominal tenderness, no. subjects [2] | AE Back pain, no. subjects [2] | AE Cogwheel rigidity, no. subjects [2] | AE Contusion, no. subjects [2] | AE Depression, no. subjects [2] | AE Diarrhea, no. subjects [2] | AE Dizziness, no. subjects [2] | AE Dysgeusia, no. subjects [2] | AE Ear infection, no. subjects [2] | AE Epistaxis, no. subjects [2] | AE Flank pain, no. subjects [2] | AE Intentional self-injury, no. subjects [2] | AE Loss of consciousness, no. subjects [2] | AE Migraine, no. subjects [2] | AE Musculoskeletal chest pain, no. subjects [2] | AE Musculoskeletal pain, no. subjects [2] | AE Nasal congestion, no. subjects [2] | AE Nasopharyngitis, no. subjects [2] | AE Neck pain, no. subjects [2] | AE Night sweats, no. subjects [2] | AE Pelvic pain, no. subjects [2] | AE Reproductive system and breast disorders, no. subjects [2] | AE Restlessness, no. subjects [2] | AE Road traffic accident, no. subjects [2] | AE Sedation, no. subjects [2] | AE Skin and subcutaneous tissue disorders, no. subjects [2] | AE Suicidal ideation, no. subjects [2] | AE Upper respiratory tract infection, no. subjects [2] | AE Vomiting, no. subjects [2] | AE Vulvovaginal mycotic infection, no. subjects [2]
33: Total no. subjects with TEAE [1]
6: AE Gastrointestinal disorders, no. subjects [2] | AE Nervous system disorders, no. subjects [2]
(94.3%): Total subjects with TEAE, % of subjects [1]
2: AE Dry mouth, no. subjects [2] | AE Headache, no. subjects [2] | AE Injury, poisoning and procedural complications, no. subjects [2] | AE Musculoskeletal and connective tissue disorders, no. subjects [2] | AE Pharyngitis, no. subjects [2] | AE Respiratory, thoracic and mediastinal disorders, no. subjects [2] | AE Tremor, no. subjects [2]
(7.4%): AE Dry mouth, % of subjects [2] | AE Headache, % of subjects [2] | AE Injury, poisoning and procedural complications, % of subjects [2] | AE Musculoskeletal and connective tissue disorders, % of subjects [2] | AE Pharyngitis, % of subjects [2] | AE Respiratory, thoracic and mediastinal disorders, % of subjects [2] | AE Tremor, % of subjects [2]
1 (3.7%) subjects (%): Serious adverse event: Psychiatric disorders [2] | Serious adverse event: Suicidal ideation [2] | Total no. subjects with a serious adverse event [2]
5: AE Psychiatric disorders, no. subjects [2]
2 (5.7%) subjects (%): TEAE leading to study discontinuation: Nervous system disorders [1] | TEAE leading to study discontinuation: Psychiatric disorders [1]
(3.7%): AE Abdominal pain, % of subjects [2] | AE Abdominal tenderness, % of subjects [2] | AE Back pain, % of subjects [2] | AE Cogwheel rigidity, % of subjects [2] | AE Contusion, % of subjects [2] | AE Depression, % of subjects [2] | AE Diarrhea, % of subjects [2] | AE Dizziness, % of subjects [2] | AE Dysgeusia, % of subjects [2] | AE Ear infection, % of subjects [2] | AE Epistaxis, % of subjects [2] | AE Flank pain, % of subjects [2] | AE Intentional self-injury, % of subjects [2] | AE Loss of consciousness, % of subjects [2] | AE Migraine, % of subjects [2] | AE Musculoskeletal chest pain, % of subjects [2] | AE Musculoskeletal pain, % of subjects [2] | AE Nasal congestion, % of subjects [2] | AE Nasopharyngitis, % of subjects [2] | AE Neck pain, % of subjects [2] | AE Night sweats, % of subjects [2] | AE Pelvic pain, % of subjects [2] | AE Reproductive system and breast disorders, % of subjects [2] | AE Restlessness, % of subjects [2] | AE Road traffic accident, % of subjects [2] | AE Sedation, % of subjects [2] | AE Skin and subcutaneous tissue disorders, % of subjects [2] | AE Suicidal ideation, % of subjects [2] | AE Upper respiratory tract infection, % of subjects [2] | AE Vomiting, % of subjects [2] | AE Vulvovaginal mycotic infection, % of subjects [2]
1 (2.9%) subjects (%): TEAE leading to study discontinuation: Dysgeusia [1] | TEAE leading to study discontinuation: Dyspnea [1] | TEAE leading to study discontinuation: Gastrointestinal disorders [1] | TEAE leading to study discontinuation: Nausea [1] | TEAE leading to study discontinuation: Respiratory, thoracic and mediastinal disorders [1] | TEAE leading to study discontinuation: Ventricular extrasystoles [1]
4 (11.4%) subjects (%): Total no. subjects with a serious TEAE [1]
